Test results reported in patent US12415794B2 (Edgewise Therapeutics, Inc., priority 2018, dated 2025).

Assays:
[1] = target: skeletal myofibrils (myosin ATPase); test: Skeletal Myofibril ATPase Assay; format: biochemical
How it was run: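 Rates of NADH loss (A340, kinetic read over 45 min) report ADP generation by myofibrillar myosin, coupled through pyruvate kinase and lactate dehydrogenase; pCa buffer at pH 7.0. IC50 fitted by 4-parameter logistic after normalizing to 1% DMSO controls; cardiac myofibrils served for selectivity.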

[2] = target: T1, cardiac myofibrils (myosin ATPase); test: Cardiac Myofibril ATPase Assay (counter screen); format: biochemical; details: myofibrils 1.0 mg/mL, KCl omitted
T1 construct: frozen myofibril pellets obtained from cardiac tissue; from tissue
T1 sequence (P12883 whole entry): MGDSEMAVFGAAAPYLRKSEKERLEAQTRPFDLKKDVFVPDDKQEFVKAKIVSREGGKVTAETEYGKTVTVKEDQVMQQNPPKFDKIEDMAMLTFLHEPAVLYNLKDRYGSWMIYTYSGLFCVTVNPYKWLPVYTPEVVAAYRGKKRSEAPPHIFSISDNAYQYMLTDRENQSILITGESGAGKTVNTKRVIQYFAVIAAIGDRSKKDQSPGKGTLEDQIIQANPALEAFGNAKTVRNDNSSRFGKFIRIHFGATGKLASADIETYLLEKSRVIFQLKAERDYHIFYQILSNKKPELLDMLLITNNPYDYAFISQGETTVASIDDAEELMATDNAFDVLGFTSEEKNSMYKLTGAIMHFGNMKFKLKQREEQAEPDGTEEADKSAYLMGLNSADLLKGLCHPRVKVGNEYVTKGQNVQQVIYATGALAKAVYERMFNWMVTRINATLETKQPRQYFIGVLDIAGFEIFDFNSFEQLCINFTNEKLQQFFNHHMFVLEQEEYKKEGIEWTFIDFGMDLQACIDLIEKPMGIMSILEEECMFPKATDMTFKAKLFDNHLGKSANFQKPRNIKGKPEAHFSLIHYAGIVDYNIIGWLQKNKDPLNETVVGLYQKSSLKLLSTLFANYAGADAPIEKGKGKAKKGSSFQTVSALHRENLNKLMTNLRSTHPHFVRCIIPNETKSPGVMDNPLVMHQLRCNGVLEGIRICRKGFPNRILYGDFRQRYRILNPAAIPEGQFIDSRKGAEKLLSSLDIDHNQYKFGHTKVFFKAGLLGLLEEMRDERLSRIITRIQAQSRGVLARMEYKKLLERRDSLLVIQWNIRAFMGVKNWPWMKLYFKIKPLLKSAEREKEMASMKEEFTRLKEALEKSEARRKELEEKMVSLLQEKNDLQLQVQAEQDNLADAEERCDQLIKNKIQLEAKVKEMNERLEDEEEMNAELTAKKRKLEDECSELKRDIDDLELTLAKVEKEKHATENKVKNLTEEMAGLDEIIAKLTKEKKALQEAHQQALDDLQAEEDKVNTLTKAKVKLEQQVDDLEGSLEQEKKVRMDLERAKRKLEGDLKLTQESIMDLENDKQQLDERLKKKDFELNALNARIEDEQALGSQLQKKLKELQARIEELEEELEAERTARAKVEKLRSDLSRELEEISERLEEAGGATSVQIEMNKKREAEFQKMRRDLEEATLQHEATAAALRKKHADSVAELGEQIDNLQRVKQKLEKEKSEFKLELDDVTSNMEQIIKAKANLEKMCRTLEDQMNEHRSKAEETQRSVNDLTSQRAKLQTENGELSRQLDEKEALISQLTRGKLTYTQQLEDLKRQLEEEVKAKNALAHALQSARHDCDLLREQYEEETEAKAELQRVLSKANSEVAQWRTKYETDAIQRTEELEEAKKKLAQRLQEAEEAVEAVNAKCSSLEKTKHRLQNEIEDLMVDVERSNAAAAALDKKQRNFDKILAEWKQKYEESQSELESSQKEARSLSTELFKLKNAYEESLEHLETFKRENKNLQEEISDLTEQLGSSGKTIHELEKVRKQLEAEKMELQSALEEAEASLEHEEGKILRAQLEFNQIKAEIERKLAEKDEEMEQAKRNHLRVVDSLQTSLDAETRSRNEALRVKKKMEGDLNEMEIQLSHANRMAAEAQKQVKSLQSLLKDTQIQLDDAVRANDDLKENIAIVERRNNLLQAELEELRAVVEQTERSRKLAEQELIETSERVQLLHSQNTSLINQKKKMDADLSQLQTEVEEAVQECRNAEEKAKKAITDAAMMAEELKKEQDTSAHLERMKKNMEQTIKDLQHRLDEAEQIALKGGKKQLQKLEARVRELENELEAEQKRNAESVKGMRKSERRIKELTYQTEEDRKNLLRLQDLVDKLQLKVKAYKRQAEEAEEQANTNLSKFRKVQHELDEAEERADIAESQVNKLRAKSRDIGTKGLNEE
T1 sequence (P08590 whole entry partner): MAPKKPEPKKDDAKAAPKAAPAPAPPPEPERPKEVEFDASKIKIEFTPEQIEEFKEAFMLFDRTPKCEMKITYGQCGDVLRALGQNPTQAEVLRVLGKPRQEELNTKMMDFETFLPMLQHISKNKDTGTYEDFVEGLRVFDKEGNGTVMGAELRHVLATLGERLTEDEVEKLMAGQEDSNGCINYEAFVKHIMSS
T1 sequence (P10916 whole entry partner): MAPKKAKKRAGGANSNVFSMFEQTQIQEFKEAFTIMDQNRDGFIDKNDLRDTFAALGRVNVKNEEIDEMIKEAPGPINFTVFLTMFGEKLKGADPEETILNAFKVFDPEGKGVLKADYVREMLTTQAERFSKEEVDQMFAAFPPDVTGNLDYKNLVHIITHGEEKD
How it was run: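 Myosin ATPase rate followed via NADH disappearance at 340 nm, coupled through pyruvate kinase and lactate dehydrogenase, using cardiac myofibril pellets (final 1.0 mg/mL) without KCl. IC50 values reflect rate reduction compared with vehicle-treated wells.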

Compound | IC50 ([1]; Table 4C) | IC50 ([2]; Table 5C) | further results
CCNC(=O)Cn1nc(-c2ccc(NC3COC3)nc2)ccc1=O [Compound I-44, N-ethyl-2-(3-(6-(oxetan-3-ylamino)pyridin-3-yl)-6-oxopyridazin-1(6H)-yl)acetamide] |  |  | IC50 ([1]; Table 4A): < 10 µM; IC50 ([2]; Table 5A): > 100 µM
O=C(Cn1nc(-c2ccc(OCC(F)(F)F)nc2)ccc1=O)NC1CCC1 [Compound I-56, N-cyclobutyl-2-(6-oxo-3-(6-(2,2,2-trifluoroethoxy)pyridin-3-yl)pyridazin-1(6H)-yl)acetamide] |  |  | IC50 ([1]; Table 4A): < 10 µM; IC50 ([2]; Table 5A): 10 to 100 µM
COc1ccc(-c2ccc(=O)n(CC(=O)NCc3cnn(C)c3)n2)cc1 [IIIa-32, 2-(3-(4-methoxyphenyl)-6-oxopyridazin-1(6H)-yl)-N-((1-methyl-1H-pyrazol-4-yl)methyl) acetamide] | > 100 µM | > 100 µM | 
COc1ccc(-c2ccc(=O)n(CC(=O)NCc3cccc(F)c3)n2)c(F)c1 [IIIb-55, 2-(3-(2-fluoro-4-methoxyphenyl)-6-oxopyridazin-1(6H)-yl)-N-(3-fluorobenzyl)acetamide] | > 100 µM | > 100 µM | 
CCNC(=O)Cn1nc(-c2ccc(OC(F)F)cc2)ccc1=O [II-10, 2-(3-(4-(difluoromethoxy)phenyl)-6-oxopyridazin-1(6H)-yl)-N-ethylacetamide] |  |  | IC50 ([1]; Table 4B): < 10 µM; IC50 ([2]; Table 5B): > 100 µM
COc1ccc(-c2ccc(=O)n(CC(=O)NCc3cnoc3)n2)cc1 [IIIa-31, N-(isoxazol-4-ylmethyl)-2-(3-(4-methoxyphenyl)-6-oxopyridazin-1(6H)-yl)acetamide] | > 100 µM | > 100 µM | 
COc1ccc(-c2ccc(=O)n(CC(=O)NCc3cccc(C)c3)n2)cc1 [IIIa-10, 2-(3-(4-methoxyphenyl)-6-oxopyridazin-1(6H)-yl)-N-(3-methylbenzyl) acetamide] | < 10 µM | > 100 µM | 
O=C(Cn1nc(-c2ccccc2)ccc1=O)NC1(c2ccccc2)CCC1 [IIIc-51, 2-(6-oxo-3-phenylpyridazin-1(6H)-yl)-N-(1-phenylcyclobutyl)acetamide] | < 10 µM | > 100 µM | 
COc1ccc(-c2ccc(=O)n(CC(=O)Nc3cccc(C)n3)n2)cc1 [IIIb-59, 2-(3-(4-methoxyphenyl)-6-oxopyridazin-1(6H)-yl)-N-(6-methylpyridin-2-yl)acetamide] | > 100 µM | > 100 µM | 
CC(C)NC(=O)Cn1nc(-c2ccccc2)ccc1=O [IIIc-63, N-isopropyl-2-(6-oxo-3-phenylpyridazin-1(6H)-yl)acetamide] | > 100 µM | > 100 µM | 
COc1ccc(-c2ccc(=O)n(CC(=O)NCc3ccc(C)cc3)n2)cc1 [IIIa-15, 2-(3-(4-methoxyphenyl)-6-oxopyridazin-1(6H)-yl)-N-(4-methylbenzyl) acetamide] | < 10 µM | > 100 µM | 
CC[C@H](C)NC(=O)Cn1nc(-c2ccc(Cl)cc2)ccc1=O [IIIc-30, (S)-N-(sec-butyl)-2-(3-(4-chlorophenyl)-6-oxopyridazin-1(6H)-yl)acetamide] | 10 to 100 µM | > 100 µM | 
CCNC(=O)Cn1nc(-c2ccc(NC(C)(C)C)nc2)ccc1=O [Compound I-53, 2-(3-(6-(tert-butylamino)pyridin-3-yl)-6-oxopyridazin-1(6H)-yl)-N-ethylacetamide] |  |  | IC50 ([1]; Table 4A): < 10 µM; IC50 ([2]; Table 5A): > 100 µM
CCNC(=O)Cn1nc(-c2ccc(N3CC(C)(C)C3)nc2)ccc1=O [Compound I-18, 2-(3-(6-(3,3-dimethylazetidin-1-yl)pyridin-3-yl)-6-oxopyridazin-1(6H)-yl)-N-ethylacetamide] |  |  | IC50 ([1]; Table 4A): 10 to 100 µM; IC50 ([2]; Table 5A): > 100 µM
CCNC(=O)Cn1nc(-c2ccc(OCC(F)F)cc2)ccc1=O [II-7, 2-(3-(4-(2,2-difluoroethoxy)phenyl)-6-oxopyridazin-1(6H)-yl)-N-ethylacetamide] |  |  | IC50 ([1]; Table 4B): < 10 µM; IC50 ([2]; Table 5B): 10 to 100 µM
Cc1ccc(-c2ccc(=O)n(CC(=O)NCCc3ccccc3)n2)cc1 [IIIc-3, 2-(6-oxo-3-(p-tolyl)pyridazin-1(6H)-yl)-N-phenethylacetamide] | < 10 µM | > 100 µM | 
O=C(Cn1nc(-c2ccc(OCC(F)(F)F)cc2)ccc1=O)NCc1ccc[nH]c1=O [II-26, N-((2-oxo-1,2-dihydropyridin-3-yl)methyl)-2-(6-oxo-3-(4-(2,2,2-trifluoroethoxy)phenyl)pyridazin-1(6H)-yl)acetamide] |  |  | IC50 ([1]; Table 4B): 10 to 100 µM; IC50 ([2]; Table 5B): > 100 µM
CCNC(=O)Cn1nc(-c2ccc(NC34CC(CO)(C3)C4)nc2)ccc1=O [Compound I-58, N-ethyl-2-(3-(6-((3-(hydroxymethyl)bicyclo[1.1.1]pentan-1-yl)amino)pyridin-3-yl)-6-oxopyridazin-1(6H)-yl)acetamide] |  |  | IC50 ([1]; Table 4A): 10 to 100 µM; IC50 ([2]; Table 5A): > 100 µM
O=C(Cn1nc(-c2ccc(OC(F)F)cc2)ccc1=O)NCc1ccccc1Cl [II-3, N-(2-chlorobenzyl)-2-(3-(4-(difluoromethoxy)phenyl)-6-oxopyridazin-1(6H)-yl)acetamide] |  |  | IC50 ([1]; Table 4B): < 10 µM; IC50 ([2]; Table 5B): > 100 µM

Compound | IC50 ([1]; Table 4C) | IC50 ([2]; Table 5C) | further results
COc1ccc(-c2ccc(=O)n(CC(=O)N(C)c3ccccc3)n2)cc1 [IIIc-7, 2-(3-(4-methoxyphenyl)-6-oxopyridazin-1(6H)-yl)-N-methyl-N-phenylacetamide] | 10 to 100 µM | > 100 µM | 
CCNC(=O)Cn1nc(-c2ccc(OCC3(C)COC3)nc2)ccc1=O [Compound I-24, N-ethyl-2-(3-(6-((3-methyloxetan-3-yl)methoxy)pyridin-3-yl)-6-oxopyridazin-1(6H)-yl)acetamide] |  |  | IC50 ([1]; Table 4A): 10 to 100 µM; IC50 ([2]; Table 5A): > 100 µM
O=C(Cn1nc(-c2ccc(OC(F)F)cc2)ccc1=O)NC1CCC1 [II-9, N-cyclobutyl-2-(3-(4-(difluoromethoxy)phenyl)-6-oxopyridazin-1(6H)-yl)acetamide] |  |  | IC50 ([1]; Table 4B): < 10 µM; IC50 ([2]; Table 5B): > 100 µM
CCNC(=O)Cn1nc(-c2ccc(N(C)C3CCC3)nc2)ccc1=O [Compound I-61, 2-(3-(6-(cyclobutyl(methyl)amino)pyridin-3-yl)-6-oxopyridazin-1(6H)-yl)-N-ethylacetamide] |  |  | IC50 ([1]; Table 4A): < 10 µM; IC50 ([2]; Table 5A): 10 to 100 µM
COc1ccc(-c2ccc(=O)n(CC(=O)Nc3ccc4c(c3)OCCO4)n2)cc1 [IIIb-16, N-(2,3-dihydrobenzo[b][1,4]dioxin-6-yl)-2-(3-(4-methoxyphenyl)-6-oxopyridazin-1(6H)-yl)acetamide] | < 10 µM | > 100 µM | 
COc1ccc(-c2ccc(=O)n(CC(=O)NC3CCCC3)n2)cc1OC [IIIb-45, N-cyclopentyl-2-(3-(3,4-dimethoxyphenyl)-6-oxopyridazin-1(6H)-yl)acetamide] | > 100 µM | > 100 µM | 
O=C(Cn1nc(-c2ccc(OC(F)F)nc2)ccc1=O)NC1CCC1 [Compound I-4, N-cyclobutyl-2-(3-(6-(difluoromethoxy)pyridin-3-yl)-6-oxopyridazin-1(6H)-yl)acetamide] |  |  | IC50 ([1]; Table 4A): < 10 µM; IC50 ([2]; Table 5A): > 100 µM
CCNC(=O)Cn1nc(-c2ccc(SC)nc2)ccc1=O [Compound I-63, N-ethyl-2-(3-(6-(methylthio)pyridin-3-yl)-6-oxopyridazin-1(6H)-yl)acetamide] |  |  | IC50 ([1]; Table 4A): < 10 µM; IC50 ([2]; Table 5A): > 100 µM
CCNC(=O)Cn1nc(-c2cnc(Nc3ccc(F)cc3)nc2)ccc1=O [Compound I-2, N-ethyl-2-(3-(2-((4-fluorophenyl)amino)pyrimidin-5-yl)-6-oxopyridazin-1(6H)-yl)acetamide] |  |  | IC50 ([1]; Table 4A): < 10 µM; IC50 ([2]; Table 5A): > 100 µM
CCNC(=O)Cn1nc(-c2ccc(OC(F)(F)F)cc2)ccc1=O [II-5, N-ethyl-2-(6-oxo-3-(4-(trifluoromethoxy)phenyl)pyridazin-1(6H)-yl)acetamide] |  |  | IC50 ([1]; Table 4B): < 10 µM; IC50 ([2]; Table 5B): > 100 µM
COc1ccc(-c2ccc(=O)n(CC(=O)NC(C)C)n2)c(F)c1 [IIIb-19, 2-(3-(2-fluoro-4-methoxyphenyl)-6-oxopyridazin-1(6H)-yl)-N-isopropylacetamide] | 10 to 100 µM | > 100 µM | 
CCOc1ccc(-c2ccc(=O)n(CCNC(=O)CC3CCCC3)n2)cc1 [IIIb-43, 2-cyclopentyl-N-(2-(3-(4-ethoxyphenyl)-6-oxopyridazin-1(6H)-yl)ethyl)acetamide] | > 100 µM | > 100 µM | 
CC(C)CNC(=O)Cn1nc(-c2ccc(OC(F)F)cc2)ccc1=O [II-13, 2-(3-(4-(difluoromethoxy)phenyl)-6-oxopyridazin-1(6H)-yl)-N-isobutylacetamide] |  |  | IC50 ([1]; Table 4B): 10 to 100 µM; IC50 ([2]; Table 5B): > 100 µM
COc1ccc(-c2ccc(=O)n(CC(=O)NC(C)(C)c3ccccc3)n2)cc1 [IIIa-9, 2-(3-(4-methoxyphenyl)-6-oxopyridazin-1(6H)-yl)-N-(2-phenylpropan-2-yl)acetamide] | < 10 µM | > 100 µM | 
COc1ccc(-c2ccc(=O)n(CC(=O)NCc3ccccc3C)n2)cc1 [IIIa-16, 2-(3-(4-methoxyphenyl)-6-oxopyridazin-1(6H)-yl)-N-(2-methylbenzyl) acetamide] | < 10 µM | > 100 µM | 
COc1ccc(-c2ccc(=O)n(CC(=O)NC3CC3)n2)c(F)c1 [IIIb-58, N-cyclopropyl-2-(3-(2-fluoro-4-methoxyphenyl)-6-oxopyridazin-1(6H)-yl)acetamide] | > 100 µM | > 100 µM | 
O=C(Cn1nc(-c2ccccc2)ccc1=O)Nc1ccc(Cl)cc1Cl [IIIc-54, N-(2,4-dichlorophenyl)-2-(6-oxo-3-phenylpyridazin-1(6H)-yl)acetamide] | 10 to 100 µM | > 100 µM | 
COc1ccc(-c2ccc(=O)n(CC(=O)Nc3cccc(Cl)c3)n2)cc1 [IIIb-52, N-(3-chlorophenyl)-2-(3-(4-methoxyphenyl)-6-oxopyridazin-1(6H)-yl)acetamide] | > 100 µM | > 100 µM | 
